Assay results from patent US6835752B2, “Carboxylic acid derivatives, processes for the preparation thereof and pharmaceutical agents comprising the same as active ingredient” (Ono Pharmaceutical Co., Ltd., priority 2000, dated 2004).

Key:
Conditions in all cases: CHO cell membrane fraction, competition with [3H]-PGE2 2.5 nM
[1] = biological target: T1, mouse EP2 receptor (Mus musculus, UniProt Q62053); assay: Binding assay using cell expressing the prostanoid receptor subtypes (EP2)
T1 construct: expressed in transfected cells; host or cells: CHO cells
Method: (§1) (i) Binding Assay Using Cell Expressing the Prostanoid Receptor Subtypes
(§2) The preparation of membrane fraction was carried out according to the method of Sugimoto et al [J. Biol. Chemical, 267, 6463-6466 (1992)], using CHO cell expressing prostanoid receptor subtypes (mouse EP1, EP2, EP3α, and EP4).
(§3) The standard assay mixture containing membrane fraction (50 μL), [^3H]—PGE2 in a final volume of 150 μL was incubated for 1 hour at room temperature. The reaction was terminated by addition of 3 mL of ice-cold buffer. The mixture was rapidly filtered through a glass filter (GF/B) under reduced pressure. The radioactivities associated with the filters were measured by liquid scintillation counter.
(§4) Kd and Bmax values were determined from Scatchard plots [Ann. N. Y. Acad. Sci. 51, 660(1949)]. Non-specific binding was determined as the amount bound in the presence of an excess (2.5 μM of unlabeled PGE2. In the experiment for competition of specific [^3H]—PGE2 binding assay, [^3H]—PGE2, was added at a concentration of 2.5 nM and a test compound of the present invention was added at various concentrations. The following buffer was used in all reactions.
(§5) Buffer: 10 mM potassium phosphate (pH 6.0), 1 mM EDTA, 10 mM MgCl2, 0.1 M NaCl.
(§6) The inhibition constant (Ki) (μM) of each compound was calculated by the following equation.

[2] = biological target: T2, mouse EP1 receptor (Mus musculus, UniProt P35375); assay: Binding assay using cell expressing the prostanoid receptor subtypes (EP1)
T2 construct: expressed in transfected cells; host or cells: CHO cells
T2 sequence (P35375 1-405): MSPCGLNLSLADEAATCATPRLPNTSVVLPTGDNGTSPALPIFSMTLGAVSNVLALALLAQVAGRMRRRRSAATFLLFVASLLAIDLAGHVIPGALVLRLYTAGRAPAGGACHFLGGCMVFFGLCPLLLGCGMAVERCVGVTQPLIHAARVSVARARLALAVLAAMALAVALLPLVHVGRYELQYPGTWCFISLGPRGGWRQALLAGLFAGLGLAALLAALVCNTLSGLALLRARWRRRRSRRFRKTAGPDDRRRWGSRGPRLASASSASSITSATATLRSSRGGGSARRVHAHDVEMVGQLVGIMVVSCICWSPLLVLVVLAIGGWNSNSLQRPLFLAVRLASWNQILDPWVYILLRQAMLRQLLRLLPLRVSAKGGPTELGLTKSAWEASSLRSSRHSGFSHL
Method: as §1, §2, §3, §4, §5, §6

[3] = biological target: T3, mouse EP4 receptor (Mus musculus, UniProt P32240); assay: Binding assay using cell expressing the prostanoid receptor subtypes (EP4)
T3 construct: expressed in transfected cells; host or cells: CHO cells
Method: as §1, §2, §3, §4, §5, §6

[4] = biological target: T4, mouse EP3α receptor (Mus musculus, UniProt P30557); assay: Binding assay using cell expressing the prostanoid receptor subtypes (EP3)
T4 construct: expressed in transfected cells; host or cells: CHO cells
T4 sequence (P30557 1-365): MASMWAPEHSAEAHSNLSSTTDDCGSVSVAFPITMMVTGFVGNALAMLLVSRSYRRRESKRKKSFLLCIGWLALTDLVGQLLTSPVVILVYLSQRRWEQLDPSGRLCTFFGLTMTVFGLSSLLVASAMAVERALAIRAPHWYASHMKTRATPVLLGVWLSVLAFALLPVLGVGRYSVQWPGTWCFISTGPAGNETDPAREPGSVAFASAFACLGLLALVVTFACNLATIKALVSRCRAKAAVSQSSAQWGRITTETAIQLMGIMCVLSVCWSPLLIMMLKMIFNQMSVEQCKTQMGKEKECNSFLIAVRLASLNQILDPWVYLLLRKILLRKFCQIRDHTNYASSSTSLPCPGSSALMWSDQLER
Method: as §1, §2, §3, §4, §5, §6

T1 sequence (Q62053 whole entry): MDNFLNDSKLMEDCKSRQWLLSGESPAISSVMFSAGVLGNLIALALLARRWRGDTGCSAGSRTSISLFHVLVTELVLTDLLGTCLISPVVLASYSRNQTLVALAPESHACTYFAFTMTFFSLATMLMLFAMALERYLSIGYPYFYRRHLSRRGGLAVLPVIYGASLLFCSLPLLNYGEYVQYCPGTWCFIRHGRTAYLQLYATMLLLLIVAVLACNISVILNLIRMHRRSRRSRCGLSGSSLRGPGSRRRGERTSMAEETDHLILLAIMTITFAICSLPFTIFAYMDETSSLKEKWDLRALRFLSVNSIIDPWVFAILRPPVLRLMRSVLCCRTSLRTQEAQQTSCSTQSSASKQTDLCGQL
T3 sequence (P32240 whole entry): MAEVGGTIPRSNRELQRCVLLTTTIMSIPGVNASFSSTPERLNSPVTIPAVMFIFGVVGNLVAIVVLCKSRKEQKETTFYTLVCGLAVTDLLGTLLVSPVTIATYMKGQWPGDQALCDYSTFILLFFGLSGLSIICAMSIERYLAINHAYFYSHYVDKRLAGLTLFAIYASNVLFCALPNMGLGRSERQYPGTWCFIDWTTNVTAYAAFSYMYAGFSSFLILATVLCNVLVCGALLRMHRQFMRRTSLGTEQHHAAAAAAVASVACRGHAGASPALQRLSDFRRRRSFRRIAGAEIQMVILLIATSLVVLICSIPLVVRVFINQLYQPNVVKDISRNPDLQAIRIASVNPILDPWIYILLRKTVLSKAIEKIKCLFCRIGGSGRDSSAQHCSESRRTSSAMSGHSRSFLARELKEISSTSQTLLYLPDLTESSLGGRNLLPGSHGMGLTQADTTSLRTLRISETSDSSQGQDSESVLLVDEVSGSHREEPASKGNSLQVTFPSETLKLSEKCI

`CC(C(=O)Nc1ccccc1CCCC(=O)O)c1cccc2ccccc12` (stereo not shown) [Example 2, 4-[2-[2-(1-naphthyl)propanoylamino]phenyl]butanoic acid] was tested, and the Ki [1] was over 10 µM, the Ki [2] was over 10 µM and the Ki [3] was 0.3 µM. The Ki [4] was 2.4 µM.
